Values of other authors in PMC4959786 (Clinical immunology (Orlando, Fla.), 2015).

Target: I-A^q (Mus musculus, UniProt P04227+P06342)
Conditions: result in words, earlier work

Chain of I-A^q (P04227 whole entry, looked up): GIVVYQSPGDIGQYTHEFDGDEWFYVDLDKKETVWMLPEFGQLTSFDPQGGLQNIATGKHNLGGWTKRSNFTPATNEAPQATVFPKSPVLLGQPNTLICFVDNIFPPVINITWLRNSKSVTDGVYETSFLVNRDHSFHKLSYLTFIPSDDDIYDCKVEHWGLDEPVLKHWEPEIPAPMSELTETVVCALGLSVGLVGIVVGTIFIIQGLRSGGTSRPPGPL
Chain of I-A^q (P06342 whole entry, looked up): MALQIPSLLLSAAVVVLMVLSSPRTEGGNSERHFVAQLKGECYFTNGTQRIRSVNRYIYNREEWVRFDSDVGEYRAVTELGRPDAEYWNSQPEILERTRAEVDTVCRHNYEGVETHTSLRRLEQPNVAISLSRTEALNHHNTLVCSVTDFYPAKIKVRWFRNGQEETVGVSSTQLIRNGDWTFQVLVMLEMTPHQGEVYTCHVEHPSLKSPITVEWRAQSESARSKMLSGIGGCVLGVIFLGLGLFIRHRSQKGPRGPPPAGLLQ

Sequence: GEBGABGNKGEQGPKGEBGP [A9]
- binding to I-A^q (ref [5], [6]): binds very weakly
- binding affinity for I-A^q (ref [6]): very weak binding affinity
